In US20220095618A1, “HERBICIDAL COMPOSITIONS” (SYNGENTA CROP PROTECTION AG, priority 2019, published 2022):

What was measured:
Assay in all cases: Post-emergence efficacy of compounds of Formula (I) (B1), glasshouse
Type in all cases: in vivo
[1] = tested on: Amaranthus palmeri (AMAPA); settings: Amaranthus palmeri, post-emergence, 312 h; Application Rate 500 g/Ha; evaluated after 13 days; read-out: Control of AMAPA after post-emergence application (100=total damage to plant; 0=no damage to plant)
Experimental: (§1) Seeds of a variety of test species were sown in standard Iaom-based soil in pots:— Ipomoea hederacea (IPOHE), Euphorbia heterophylla (EPHHL), Chenopodium album (CHEAL), Amaranthus palmeri (AMAPA), Lolium perenne (LOLPE), Digitaria sanguinalis (DIGSA), Eleusine indica (ELEIN), Echinochloa crus-galli (ECHCG), Setaria faberi (SETFA). After cultivation for 14 days (post-emergence) under controlled conditions in a glasshouse (at 24/16° C., day/night; 14 hours light; 65% humidity), the plants were sprayed with an aqueous spray solution derived from the dissolution of the technical active ingredient Formula (I) in a small amount of acetone and a special solvent and emulsifier mixture referred to as IF50 (11.12% Emulsogen EL360 TM+44.44% N-methylpyrrolidone+44.44% Dowanol DPM glycol ether), to create a 50 g/I solution which was then diluted to required concentration using 0.25% or 1% Empicol ESC70 (Sodium lauryl ether sulphate)+1% ammonium sulphate as diluent. The delivery of the aqueous spray solution was via a laboratory track sprayer which delivered the aqueous spray composition at a rate of 200 litres per hectare, using a flat fan nozzle (Teejet 11002VS) and an application volume of 200 litre/ha (at 2 bar).
(§2) The test plants were then grown in a glasshouse under controlled conditions (at 24/16° C., day/night; 14 hours light; 65% humidity) and watered twice daily. After 13 days the test was evaluated (100=total damage to plant; 0=no damage to plant).

[2] = tested on: Chenopodium album (CHEAL); settings: Application Rate 500 g/Ha, evaluated after 13 days; for pest or weed control at 500 g/ha: Chenopodium album, post-emergence, 312 h, read-out: Control of CHEAL after post-emergence application (100=total damage to plant; 0=no damage to plant)
Experimental: as §1, §2

[3] = tested on: Digitaria sanguinalis (DIGSA); settings: Application Rate 500 g/Ha, evaluated after 13 days; for pest or weed control at 500 g/ha: Digitaria sanguinalis, post-emergence, 312 h, read-out: Control of DIGSA after post-emergence application (100=total damage to plant; 0=no damage to plant)
Experimental: as §1, §2

[4] = tested on: Echinochloa crus-galli (ECHCG); settings: Application Rate 500 g/Ha, evaluated after 13 days; for pest or weed control at 500 g/ha: Echinochloa crus-galli, post-emergence, 312 h, read-out: Control of ECHCG after post-emergence application (100=total damage to plant; 0=no damage to plant)
Experimental: as §1, §2

Eleusine indica (ELEIN) = settings: Application Rate 500 g/Ha, evaluated after 13 days; for pest or weed control at 500 g/ha: Eleusine indica, post-emergence, 312 h, read-out: Control of ELEIN after post-emergence application (100=total damage to plant; 0=no damage to plant)
Experimental: as §1, §2

[5] = tested on: Euphorbia heterophylla (EPHHL); settings: Application Rate 500 g/Ha, evaluated after 13 days; for pest or weed control at 500 g/ha: Euphorbia heterophylla, post-emergence, 312 h, read-out: Control of EPHHL after post-emergence application (100=total damage to plant; 0=no damage to plant)
Experimental: as §1, §2

[6] = tested on: Ipomoea hederacea (IPOHE); settings: Application Rate 500 g/Ha, evaluated after 13 days; for pest or weed control at 500 g/ha: Ipomoea hederacea, post-emergence, 312 h, read-out: Control of IPOHE after post-emergence application (100=total damage to plant; 0=no damage to plant)
Experimental: as §1, §2

Lolium perenne (LOLPE) = settings: Lolium perenne, post-emergence, 312 h, Application Rate 500 g/Ha; evaluated after 13 days; read-out: Control of LOLPE after post-emergence application (100=total damage to plant; 0=no damage to plant)
Experimental: as §1, §2

Setaria faberi (SETFA) = settings: Application Rate 500 g/Ha, evaluated after 13 days; for pest or weed control at 500 g/ha: Setaria faberi, post-emergence, 312 h, read-out: Control of SETFA after post-emergence application (100=total damage to plant; 0=no damage to plant)
Experimental: as §1, §2

SMILES | pest or weed control at 500 g/ha [1] [%] | pest or weed control at 500 g/ha [2] [%] | pest or weed control at 500 g/ha [3] [%] | pest or weed control at 500 g/ha [4] [%] | pest or weed control at 500 g/ha (Eleusine indica (ELEIN)) [%] | pest or weed control at 500 g/ha [5] [%] | pest or weed control at 500 g/ha [6] [%] | pest or weed control at 500 g/ha (Lolium perenne (LOLPE)) [%] | pest or weed control at 500 g/ha (Setaria faberi (SETFA)) [%] | Control of IPOHE after post-emergence application (100=total damage to plant; 0=no damage to plant) [6] | Control of CHEAL after post-emergence application (100=total damage to plant; 0=no damage to plant) [2] | Control of DIGSA after post-emergence application (100=total damage to plant; 0=no damage to plant) [3] | Control of ECHCG after post-emergence application (100=total damage to plant; 0=no damage to plant) [4] | Control of ELEIN after post-emergence application (100=total damage to plant; 0=no damage to plant) (Eleusine indica (ELEIN)) | Control of EPHHL after post-emergence application (100=total damage to plant; 0=no damage to plant) [5] | Control of SETFA after post-emergence application (100=total damage to plant; 0=no damage to plant) (Setaria faberi (SETFA))
O=C(O)CC[n+]1ccc(-c2ccncn2)cn1 [Compound 1.011] | 100 | 100 | 90 | 90 | 100 | 100 | 100 | 70 | 100 |  |  |  |  |  |  | 
Cl.O=S(=O)([O-])CC[n+]1ccc(-c2cccnn2)cn1 [Compound 1.031, 2-(4-pyridazin-1-ium-3-ylpyridazin-1-ium-1-yl)ethanesulfonate chloride] | 100 | 90 | 100 | 100 | 100 | 100 |  | 90 | 100 | 70 |  |  |  |  |  | 
N[C@H](CC[n+]1ccc(-c2ncccn2)cn1)C(=O)O [Compound 1.029, [(1R)-1-carboxy-3-(4-pyrimidin-2-ylpyridazin-1-ium-1-yl)propyl]-ammonium 2,2,2-trifluoroacetate] | 100 | 100 | 90 | 60 | 100 | 90 | 90 | 20 | 100 |  |  |  |  |  |  | 
O=S(=O)([O-])CC[n+]1ccc(-c2ccnnc2)cn1 [Compound 1.006, 2-(4-pyridazin-4-ylpyridazin-1-ium-1-yl)ethanesulfonate] | 100 | 100 | 80 | 60 | 100 | 100 | 100 | 80 | 30 |  |  |  |  |  |  | 
CC(C)(CC(=O)O)[n+]1ccc(-c2ncccn2)cn1 [Compound 1.025, 3-methyl-3-(4-pyrimidin-2-ylpyridazin-1-ium-1-yl)butanoic acid 2,2,2-trifluoroacetate] | 100 | 70 | 90 | 100 | 100 | 40 | 50 | 30 | 100 |  |  |  |  |  |  | 
O=C(O)CC[n+]1ccc(-c2ncccn2)cn1.[Br-] [Compound 1.021, 3-(4-pyrimidin-2-ylpyridazin-1-ium-1-yl)propanoic acid bromide] | 100 |  |  |  |  |  |  | 70 |  | 100 | 100 | 100 | 100 | 100 | 100 | 100
COC(=O)CC[n+]1ccc(-c2cnccn2)cn1 [Compound 1.013, methyl 3-(4-pyrazin-2-ylpyridazin-1-ium-1-yl)propanoate chloride] | 100 | 90 | 100 | 80 | 100 | 100 | 80 | 70 | 100 |  |  |  |  |  |  | 
